# Measured values taken from US12428406B2 (PMV Pharmaceuticals, Inc., priority 2019, dated 2025).
# Target: T1, p53 Y220C (Homo sapiens, UniProt P04637, Y220C)
# T1 construct: The recombinant protein was a truncation mutant containing only amino acids 94-312 of p53; made in house; host or cells: E. coli
# Assay: In vitro DNA binding activity assay (HTRF / TR-FRET): stabilization of p53 Y220C and increase of its DNA binding activity
# Assay type: biochemical
# Details: recombinant His-tagged p53 Y220C DNA binding domain (aa 94-312), biotin-labeled consensus DNA, incubated at 27° C. or 29° C. for 60 min
# Summary of the method: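 Homogeneous time-resolved fluorescence with E. coli-derived p53 Y220C and biotinylated consensus DNA. Room-temperature incubations of 15 and 20 min precede reading. SC150 denotes the compound concentration required for 50% increased DNA binding.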
# T1 sequence (P04637 94-312, change not shown): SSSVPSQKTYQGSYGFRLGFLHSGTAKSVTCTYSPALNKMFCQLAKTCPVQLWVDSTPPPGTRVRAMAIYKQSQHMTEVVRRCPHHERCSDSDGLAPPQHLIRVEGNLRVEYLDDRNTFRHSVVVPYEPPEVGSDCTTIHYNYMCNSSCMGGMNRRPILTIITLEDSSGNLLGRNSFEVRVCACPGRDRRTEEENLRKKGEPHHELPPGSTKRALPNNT
row,Compound,SC150 (concentration of the compound required to increase the DNA binding activity by 50%)
1,"CCC(=O)OCC(CNC(=O)c1ccc(NCC#Cc2cc3c(N[C@@H]4CCN(C)C[C@@H]4F)cccc3n2CC(F)(F)F)c(OC)c1)OC(=O)CC (stereo partly drawn) [Compound 971A, 1-[(4-{[3-(4-{[(3S,4R)-3-fluoro-1-methylpiperidin-4-yl]amino}-1-(2,2,2-trifluoroethyl)-1H-indol-2-yl)prop-2-yn-1-yl]amino}-3-methoxyphenyl)formamido]-3-(propanoyloxy)propan-2-ylpropanoate]",+ (+ = 0 μM ≤ SC150 < 0.05 μM)
2,"COc1cc(C(=O)NC(C)COC(=O)C(C)C)ccc1NCC#Cc1cc2c(N[C@@H]3CCN(C)C[C@@H]3F)cccc2n1CC(F)(F)F (stereo partly drawn) [Compound 972A, 2-[(4-{[3-(4-{[(3S,4R)-3-fluoro-1-methylpiperidin-4-yl]amino}-1-(2,2,2-trifluoroethyl)-1H-indol-2-yl)prop-2-yn-1-yl]amino}-3-methoxyphenyl)formamido]propyl 2-methylpropanoate]",+ (+ = 0 μM ≤ SC150 < 0.05 μM)
3,"COc1cc(S(C)(=O)=O)ccc1NCC#Cc1cc2c(NC3CCCN(C)CC3)cccc2n1CC(F)(F)F (stereo not drawn) [Compound 988A, 2-{3-[(4-methanesulfonyl-2-methoxyphenyl)amino]prop-1-yn-1-yl}-N-(1-methylazepan-4-yl)-1-(2,2,2-trifluoroethyl)-1H-indol-4-amine]",+ (+ = 0 μM ≤ SC150 < 0.05 μM)
4,"COCC(O)CN1CCCC(Nc2cccc3c2cc(C#CCNc2ccc(S(C)(=O)=O)cc2OC)n3CC(F)(F)F)CC1 (stereo not drawn) [Compound 989A, 1-{4-[(2-{3-[(4-methanesulfonyl-2-methoxyphenyl)amino]prop-1-yn-1-yl}-1-(2,2,2-trifluoroethyl)-1H-indol-4-yl)amino]azepan-1-yl}-3-methoxypropan-2-ol]",+ (+ = 0 μM ≤ SC150 < 0.05 μM)
5,"COc1cc(S(C)(=O)=O)ccc1NCC#Cc1cc2c(NC3CC4CCC(C3)N4C)cccc2n1CC(F)(F)F (stereo not drawn) [Compound 990A, 2-{3-[(4-methanesulfonyl-2-methoxyphenyl)amino]prop-1-yn-1-yl}-N-{8-methyl-8-azabicyclo[3.2.1]octan-3-yl}-1-(2,2,2-trifluoroethyl)-1H-indol-4-amine]",+ (+ = 0 μM ≤ SC150 < 0.05 μM)
6,"CS(=O)(=O)c1ccc(NCC#Cc2cc3c(NC4CCOCC4)cccc3n2CC(F)(F)F)c(OC(F)(F)F)c1 [Compound 991A, 2-(3-{[4-methanesulfonyl-2-(trifluoromethoxy)phenyl]amino}prop-1-yn-1-yl)-N-(oxan-4-yl)-1-(2,2,2-trifluoroethyl)-1H-indol-4-amine]",+ (+ = 0 μM ≤ SC150 < 0.05 μM)
7,"COc1cc(S(=O)(=O)Nc2ccon2)ccc1NCC#Cc1cc2c(NC3CCOCC3)cccc2n1CC(F)(F)F [Compound 992A, 3-methoxy-4-[(3-{4-[(oxan-4-yl)amino]-1-(2,2,2-trifluoroethyl)-1H-indol-2-yl}prop-2-yn-1-yl)amino]-N-(1,2-oxazol-3-yl)benzene-1-sulfonamide]",+ (+ = 0 μM ≤ SC150 < 0.05 μM)
8,"COc1cc(S(=O)(=O)NC2CCOCC2)ccc1NCC#Cc1cc2c(NC3CCOCC3)cccc2n1CC(F)(F)F [Compound 993A, 3-methoxy-N-(oxan-4-yl)-4-[(3-{4-[(oxan-4-yl)amino]-1-(2,2,2-trifluoroethyl)-1H-indol-2-yl}prop-2-yn-1-yl)amino]benzene-1-sulfonamide]",+ (+ = 0 μM ≤ SC150 < 0.05 μM)
9,"COc1cc(S(=O)(=O)Nc2cc(C)on2)ccc1NCC#Cc1cc2c(NC3CCOCC3)cccc2n1CC(F)(F)F [Compound 994A, 3-methoxy-N-(5-methyl-1,2-oxazol-3-yl)-4-[(3-{4-[(oxan-4-yl)amino]-1-(2,2,2-trifluoroethyl)-1H-indol-2-yl}prop-2-yn-1-yl)amino]benzene-1-sulfonamide]",+ (+ = 0 μM ≤ SC150 < 0.05 μM)
10,"COc1cc(C(C)(C)C#N)ncc1NCC#Cc1cc2c(NC3CCOCC3)cccc2n1CC(F)(F)F [Compound 995A, 2-{4-methoxy-5-[(3-{4-[(oxan-4-yl)amino]-1-(2,2,2-trifluoroethyl)-1H-indol-2-yl}prop-2-yn-1-yl)amino]pyridin-2-yl}-2-methylpropanenitrile]",+ (+ = 0 μM ≤ SC150 < 0.05 μM)
11,"COc1cc(S(=O)(=O)N(C)CCO)ccc1NCC#Cc1cc2c(NC3CCOCC3)cccc2n1CC(F)(F)F [Compound 996A, N-(2-hydroxyethyl)-3-methoxy-N-methyl-4-[(3-{4-[(oxan-4-yl)amino]-1-(2,2,2-trifluoroethyl)-1H-indol-2-yl}prop-2-yn-1-yl)amino]benzene-1-sulfonamide]",+ (+ = 0 μM ≤ SC150 < 0.05 μM)
12,"COc1cc(S(C)(=O)=O)ccc1NCC#Cc1cc2c(NC3CCOCC3)cc(F)cc2n1CC(F)(F)F [Compound 997A, 6-fluoro-2-{3-[(4-methanesulfonyl-2-methoxyphenyl)amino]prop-1-yn-1-yl}-N-(oxan-4-yl)-1-(2,2,2-trifluoroethyl)-1H-indol-4-amine]",+ (+ = 0 μM ≤ SC150 < 0.05 μM)
13,"COc1cc(S(N)(=O)=O)ccc1NCC#Cc1cc2c(NC3CCOCC3)cc(F)cc2n1CC(F)(F)F [Compound 998A, 4-[(3-{6-fluoro-4-[(oxan-4-yl)amino]-1-(2,2,2-trifluoroethyl)-1H-indol-2-yl}prop-2-yn-1-yl)amino]-3-methoxybenzene-1-sulfonamide]",+ (+ = 0 μM ≤ SC150 < 0.05 μM)
14,"COc1cc(S(=O)(=O)N(C)C)ccc1NCC#Cc1cc2c(NC3CCOCC3)cccc2n1CC(F)(F)F [Compound 999A, 3-methoxy-N,N-dimethyl-4-[(3-{4-[(oxan-4-yl)amino]-1-(2,2,2-trifluoroethyl)-1H-indol-2-yl}prop-2-yn-1-yl)amino]benzene-1-sulfonamide]",+ (+ = 0 μM ≤ SC150 < 0.05 μM)
15,"COc1cc(S(=O)(=O)N2CCN(C(C)=O)CC2)ccc1NCC#Cc1cc2c(NC3CCOCC3)cccc2n1CC(F)(F)F [Compound 1001A, 1-(4-{3-methoxy-4-[(3-{4-[(oxan-4-yl)amino]-1-(2,2,2-trifluoroethyl)-1H-indol-2-yl}prop-2-yn-1-yl)amino]benzenesulfonyl}piperazin-1-yl)ethan-1-one]",+ (+ = 0 μM ≤ SC150 < 0.05 μM)
16,"COc1cc(S(=O)(=O)N2CCOCC2)ccc1NCC#Cc1cc2c(NC3CCOCC3)cccc2n1CC(F)(F)F [Compound 1002A, 2-(3-{[2-methoxy-4-(morpholine-4-sulfonyl)phenyl]amino}prop-1-yn-1-yl)-N-(oxan-4-yl)-1-(2,2,2-trifluoroethyl)-1H-indol-4-amine]",+ (+ = 0 μM ≤ SC150 < 0.05 μM)
17,CNC(=O)c1ccc(NCC#Cc2cc3c(NC4CCOCC4)cccc3n2CC(F)(F)F)c(OC)c1 [Compound 1003A],+ (+ = 0 μM ≤ SC150 < 0.05 μM)
18,"COc1cc(S(=O)(=O)N(CCO)CCO)ccc1NCC#Cc1cc2c(NC3CCOCC3)cccc2n1CC(F)(F)F [Compound 1007A, N,N-bis(2-hydroxyethyl)-3-methoxy-4-[(3-{4-[(oxan-4-yl)amino]-1-(2,2,2-trifluoroethyl)-1H-indol-2-yl}prop-2-yn-1-yl)amino]benzene-1-sulfonamide]",+ (+ = 0 μM ≤ SC150 < 0.05 μM)
19,CNS(=O)(=O)c1ccc(NCC#Cc2cc3c(NC4CCOCC4)cccc3n2CC(F)(F)F)c(OC)c1 [Compound 1008A],+ (+ = 0 μM ≤ SC150 < 0.05 μM)
20,"CS(=O)(=O)c1ccc(NCC#Cc2cc3c(NC4CCOCC4)cccc3n2CC(F)(F)F)c(O)c1 [Compound 1009A, 5-methanesulfonyl-2-[(3-{4-[(oxan-4-yl)amino]-1-(2,2,2-trifluoroethyl)-1H-indol-2-yl}prop-2-yn-1-yl)amino]phenol]",+ (+ = 0 μM ≤ SC150 < 0.05 μM)
21,"COc1cc(S(N)(=O)=O)ccc1NCC#Cc1cc2c(NC3CCOCC3)c(OC)ccc2n1CC(F)(F)F [Compound 1010A, 3-methoxy-4-[(3-{5-methoxy-4-[(oxan-4-yl)amino]-1-(2,2,2-trifluoroethyl)-1H-indol-2-yl}prop-2-yn-1-yl)amino]benzene-1-sulfonamide]",++++ (++++ = 0.2 μM ≤ SC150 < 1 μM)
22,"COc1cc(S(=O)(=O)N2CCN(C)CC2)ccc1NCC#Cc1cc2c(NC3CCOCC3)cccc2n1CC(F)(F)F [Compound 1011A, 2-[3-({2-methoxy-4-[(4-methylpiperazin-1-yl)sulfonyl]phenyl}amino)prop-1-yn-1-yl]-N-(oxan-4-yl)-1-(2,2,2-trifluoroethyl)-1H-indol-4-amine]",+ (+ = 0 μM ≤ SC150 < 0.05 μM)
23,"COc1cc(S(C)(=O)=O)ccc1NCC#Cc1cc2c(NC3CCOCC3)c(OC)ccc2n1CC(F)(F)F [Compound 1012A, 2-{3-[(4-methanesulfonyl-2-methoxyphenyl)amino]prop-1-yn-1-yl}-5-methoxy-N-(oxan-4-yl)-1-(2,2,2-trifluoroethyl)-1H-indol-4-amine]",++++ (++++ = 0.2 μM ≤ SC150 < 1 μM)
24,"COc1cc(NC2CCOCC2)c2cc(C#CCNc3ccc(S(N)(=O)=O)cc3OC)n(CC(F)(F)F)c2c1 [Compound 1013A, 3-methoxy-4-[(3-{6-methoxy-4-[(oxan-4-yl)amino]-1-(2,2,2-trifluoroethyl)-1H-indol-2-yl}prop-2-yn-1-yl)amino]benzene-1-sulfonamide]",+++ (+++ = 0.1 μM ≤ SC150 < 0.2 μM)
